US20170112877A1, “NON-TOXIC AGENT FOR A BROAD-SPECTRUM, BACTERICIDAL OR BACTERIOSTATIC TREATMENT OF ANTIBIOTIC-RESISTANT BACTERIA IN ANIMALS” (LIVELEAF, INC., priority 2015, published 2017)

What was measured:
[1] = system: E. coli; assay: Antibacterial activity against E. coli in Muller-Hinton broth; type: cell-based; set-up: key: “+” means positive identification of bacterial growth; conditions: compound or extract alone, head 1%, 24 hours at 37° C.
Description: (§1) The testing methods used follow the procedures set-forth by the Clinical and Laboratory Standards Institute (CLSI) and US Pharmacopeia.
(§2) E. coli was chosen as the bacteria to challenge the antibacterial activity of the bound compositions and the free hydrogen peroxide. A range of E. coli concentrations, ranging from 10-10^6 CFU/ml were used for the study. […]
(§3) Table 2 compares the antibacterial activities of each of the model compounds and extracts alone, without the formation of the bound compositions: gallic acid (a model polyphenol building block), tannic acid (a model polyphenol), pomegranate husk extract, and green tea extract were each used to challenge the E. coli alone. […]

[2] = Amount of hydrogen peroxide bound to model compounds or extracts in dry form (peroxide test strip); type: physicochemical
Description: Art-recognized procedures, such as those set-forth at least in U.S. Pat. Nos. 3,860,694; 3,864,454; 4,171,280; and 4,966,762, were used as a guide for this study. […] As discussed, one of skill will appreciate that hydrogen peroxide in a free form, for example, would otherwise quickly degrade. The polyphenols were provided from model compounds or plant extracts. A dry form of the compositions was made between (i) gallic acid (a model polyphenol building block from Sigma-Aldrich) and hydrogen peroxide; (ii) tannic acid (a model polyphenol component from Sigma-Aldrich) and hydrogen peroxide; (iii) pomegranate husk extract and hydrogen peroxide; and, (iv) green tea extract and hydrogen peroxide, using the procedures taught herein, including: • i. adding a solution of 35% hydrogen peroxide slowly into each of the gallic acid powder, tannic powder, pomegranate husk extract powder, or green tea extract powder. […] The hydrogen peroxide concentration measurements were taken using standard methods to determine the amount of hydrogen peroxide that bound to the model compounds or extracts in the dry form.

[3] = system: E. coli; assay: Antibacterial activity against E. coli in Muller-Hinton broth; type: cell-based; set-up: key: “+” means identifiable bacterial growth.; “−” means no bacterial growth; conditions: 100 ppm, 24 hours at 37° C.
Description: as §1, §2, §3

[4] = system: E. coli; assay: as above; type: cell-based; conditions: 100 ppm, 24 hours at 37° C.
Description: as §1, §2, §3

[5] = system: E. coli; assay: Stability of hydrogen peroxide in aqueous solution, bound compositions vs free hydrogen peroxide, challenged with E. coli; type: physicochemical; conditions: for hydrogen peroxide concentration: 125 ppm extract + 125 ppm H2O2 (1:1), E. coli 10^6 CFU/ml
Description: This method tests the stability of the hydrogen peroxide in the combination. The testing methods used follow the standard procedures set-forth by the Clinical and Laboratory Standards Institute (CLSI) and US Pharmacopeia. • i. E. coli was chosen as the bacteria to challenge the stability of the bound compositions and the free hydrogen peroxide. • ii. The hydrogen peroxide concentration was matched to the selected bacteria in order to form a useful curve representing hydrogen peroxide degradation over time for the samples. […] FIG. 2A compares stabilities of free hydrogen peroxide to hydrogen peroxide bound to each of: gallic acid (a model polyphenol building block), tannic acid (a model polyphenol), pomegranate husk extract, green tea extract, and Blessed thistle extract. […] John's wort, Valerian, Apple, Grape, Echinacea purpurea, Grape seed extract, and Blueberry. In both FIGS. 2A and 2B, there are curves that cannot be identified well individually, as they are identical and overlapping. […]

Row | hydrogen peroxide bound, by total dry wt [2] | Compound | bacterial growth ([1]; E coli 10 CFU/ml) | bacterial growth ([1]; E coli 10^2 CFU/ml) | bacterial growth ([1]; E coli 10^3 CFU/ml) | bacterial growth ([1]; E coli 10^4 CFU/ml) | bacterial growth ([1]; E coli 10^5 CFU/ml) | bacterial growth ([1]; E coli 10^6 CFU/ml) | bacterial growth ([3]; E coli 10^2 CFU/ml) | bacterial growth ([3]; E coli 10^3 CFU/ml) | bacterial growth ([3]; E coli 10^4 CFU/ml) | bacterial growth ([3]; E coli 10^5 CFU/ml) | fate of E. coli, all concentrations [4] | hydrogen peroxide concentration ([5]; 0 Hours) | hydrogen peroxide concentration ([5]; 4 Hours) | hydrogen peroxide concentration ([5]; 8 Hours) | hydrogen peroxide concentration ([5]; 12 Hours) | hydrogen peroxide concentration ([5]; 16 Hours) | hydrogen peroxide concentration ([5]; 20 Hours) | hydrogen peroxide concentration ([5]; 24 Hours) | hydrogen peroxide concentration after degradation ([5]; within about the first 8 hours)
1 | about 3.0% | O=C(O)c1cc(O)c(O)c(O)c1 [Gallic Acid, gallic acid] | + | + | + | + | + | + |  |  |  |  |  |  |  |  |  |  |  |  | 
2 |  | OO [H2O2, hydrogen peroxide] |  |  |  |  |  |  | + | + | + | + | managed to survive | 125 ppm | 15 ppm | 0 ppm | 0 ppm | 0 ppm | 0 ppm | 0 ppm | ~0.0 ppm
3 | about 2.5% | O=C(OC[C@H]1O[C@@H](OC(=O)c2cc(O)c(O)c(OC(=O)c3cc(O)c(O)c(O)c3)c2)[C@H](OC(=O)c2cc(O)c(O)c(OC(=O)c3cc(O)c(O)c(O)c3)c2)[C@@H](OC(=O)c2cc(O)c(O)c(OC(=O)c3cc(O)c(O)c(O)c3)c2)[C@@H]1OC(=O)c1cc(O)c(O)c(OC(=O)c2cc(O)c(O)c(O)c2)c1)c1cc(O)c(O)c(OC(=O)c2cc(O)c(O)c(O)c2)c1 [Tannic Acid, tannic acid] | + | + | + | + | + | + |  |  |  |  |  |  |  |  |  |  |  |  | 
